Legend:
[1] = target: T1, type 1 ryanodine receptor (RyR1) (Oryctolagus cuniculus, UniProt P11716); assay: intracellular calcium assay in HEK […] stable cell lines; selective over M4000F, RyR2, RyR3; type: cell-based; set-up: full-length rabbit RyR1(WT)
[2] = target: T1, type 1 ryanodine receptor (RyR1); assay: intracellular calcium assay in HEK […] stable cell line; compared with M4000F; type: cell-based; set-up: full-length rabbit RyR1(WT)
[3] = target: T1, type 1 ryanodine receptor (RyR1); assay: intracellular calcium assay in HEK […] cells with RyR1 WT and point mutants; type: cell-based; set-up: full-length rabbit RyR1
[4] = target: T1, type 1 ryanodine receptor (RyR1); assay: cell-based; set-up: full-length rabbit RyR1; species or system HEK 293; fluorescent calcium indicator assay, peak Fmax/F0, tetracycline-induced RyR1 expression, 384-well plate
Protocol: There are three isoforms of RyRs in mammals (RyR1, RyR2, and RyR3). To systematically examine the pharmacological properties of each isoform, we used HEK 293 cell lines that express rabbit isoforms under tetracycline regulation. These cells were seeded in a 384-well plate and subjected to an assay in which the intracellular calcium levels were measured using a fluorescent calcium indicator upon drug administration (Fig 1B and 1C). While caffeine is a stimulant that antagonizes the adenosine receptors (IC50s on adenosine receptors are ~10 μM), it is also a typical agonist of RyRs activating all isoforms at higher dosages. Caffeine administration caused dose-dependent increases in intracellular calcium levels depending on the tetracycline-mediated expression of each isoform (Figs 1D–1F and S1A). We observed that, while caffeine causes calcium elevation in the nonexpressed controls, most likely due to the presence of endogenous RyRs in HEK 293 cells, the distinct signals in the expressed conditions indicate that each isoform is successfully expressed as functional channels. Supplementary file pbio.3003172.s001.pdf: S1 Fig Increased intracellular calcium by isoflurane is derived from intracellular calcium stores. […] Each agent was given after measuring the baseline fluorescence for 10 s, as indicated by arrows. […]

[5] = target: T1, type 1 ryanodine receptor (RyR1); assay: intracellular calcium assay in HEK […] cells; selectivity over M4000F; type: cell-based; set-up: full-length rabbit RyR1
[6] = target: T1, type 1 ryanodine receptor (RyR1); assay: intracellular calcium assay in HEK […] cells; caffeine-site point mutants; type: cell-based; set-up: full-length rabbit RyR1
[7] = target: T1, type 1 ryanodine receptor (RyR1); assay: intracellular calcium assay in HEK […] stable cell line; type: cell-based; set-up: full-length rabbit RyR1
[8] = target: T2, mouse RyR1(WT) (Mus musculus, UniProt E9PZQ0); assay: intracellular calcium assay in HEK […] cells; response lost in M4003F; type: cell-based
T2 construct: full-length mouse RyR1

[9] = target: T1, type 1 ryanodine receptor (RyR1); assay: intracellular calcium (Cal-520) assay in HEK […] cells with tetracycline-induced RyR1; chimeras and point mutants; type: cell-based; set-up: full-length rabbit RyR1; RyR1 Q3889-S4213 necessary and sufficient for the response
[10] = target: T1, type 1 ryanodine receptor (RyR1); assay: intracellular calcium assay in HEK […] stable cell line; response lost in M4000F; type: cell-based; set-up: full-length rabbit RyR1

T1 sequence (P11716 whole entry): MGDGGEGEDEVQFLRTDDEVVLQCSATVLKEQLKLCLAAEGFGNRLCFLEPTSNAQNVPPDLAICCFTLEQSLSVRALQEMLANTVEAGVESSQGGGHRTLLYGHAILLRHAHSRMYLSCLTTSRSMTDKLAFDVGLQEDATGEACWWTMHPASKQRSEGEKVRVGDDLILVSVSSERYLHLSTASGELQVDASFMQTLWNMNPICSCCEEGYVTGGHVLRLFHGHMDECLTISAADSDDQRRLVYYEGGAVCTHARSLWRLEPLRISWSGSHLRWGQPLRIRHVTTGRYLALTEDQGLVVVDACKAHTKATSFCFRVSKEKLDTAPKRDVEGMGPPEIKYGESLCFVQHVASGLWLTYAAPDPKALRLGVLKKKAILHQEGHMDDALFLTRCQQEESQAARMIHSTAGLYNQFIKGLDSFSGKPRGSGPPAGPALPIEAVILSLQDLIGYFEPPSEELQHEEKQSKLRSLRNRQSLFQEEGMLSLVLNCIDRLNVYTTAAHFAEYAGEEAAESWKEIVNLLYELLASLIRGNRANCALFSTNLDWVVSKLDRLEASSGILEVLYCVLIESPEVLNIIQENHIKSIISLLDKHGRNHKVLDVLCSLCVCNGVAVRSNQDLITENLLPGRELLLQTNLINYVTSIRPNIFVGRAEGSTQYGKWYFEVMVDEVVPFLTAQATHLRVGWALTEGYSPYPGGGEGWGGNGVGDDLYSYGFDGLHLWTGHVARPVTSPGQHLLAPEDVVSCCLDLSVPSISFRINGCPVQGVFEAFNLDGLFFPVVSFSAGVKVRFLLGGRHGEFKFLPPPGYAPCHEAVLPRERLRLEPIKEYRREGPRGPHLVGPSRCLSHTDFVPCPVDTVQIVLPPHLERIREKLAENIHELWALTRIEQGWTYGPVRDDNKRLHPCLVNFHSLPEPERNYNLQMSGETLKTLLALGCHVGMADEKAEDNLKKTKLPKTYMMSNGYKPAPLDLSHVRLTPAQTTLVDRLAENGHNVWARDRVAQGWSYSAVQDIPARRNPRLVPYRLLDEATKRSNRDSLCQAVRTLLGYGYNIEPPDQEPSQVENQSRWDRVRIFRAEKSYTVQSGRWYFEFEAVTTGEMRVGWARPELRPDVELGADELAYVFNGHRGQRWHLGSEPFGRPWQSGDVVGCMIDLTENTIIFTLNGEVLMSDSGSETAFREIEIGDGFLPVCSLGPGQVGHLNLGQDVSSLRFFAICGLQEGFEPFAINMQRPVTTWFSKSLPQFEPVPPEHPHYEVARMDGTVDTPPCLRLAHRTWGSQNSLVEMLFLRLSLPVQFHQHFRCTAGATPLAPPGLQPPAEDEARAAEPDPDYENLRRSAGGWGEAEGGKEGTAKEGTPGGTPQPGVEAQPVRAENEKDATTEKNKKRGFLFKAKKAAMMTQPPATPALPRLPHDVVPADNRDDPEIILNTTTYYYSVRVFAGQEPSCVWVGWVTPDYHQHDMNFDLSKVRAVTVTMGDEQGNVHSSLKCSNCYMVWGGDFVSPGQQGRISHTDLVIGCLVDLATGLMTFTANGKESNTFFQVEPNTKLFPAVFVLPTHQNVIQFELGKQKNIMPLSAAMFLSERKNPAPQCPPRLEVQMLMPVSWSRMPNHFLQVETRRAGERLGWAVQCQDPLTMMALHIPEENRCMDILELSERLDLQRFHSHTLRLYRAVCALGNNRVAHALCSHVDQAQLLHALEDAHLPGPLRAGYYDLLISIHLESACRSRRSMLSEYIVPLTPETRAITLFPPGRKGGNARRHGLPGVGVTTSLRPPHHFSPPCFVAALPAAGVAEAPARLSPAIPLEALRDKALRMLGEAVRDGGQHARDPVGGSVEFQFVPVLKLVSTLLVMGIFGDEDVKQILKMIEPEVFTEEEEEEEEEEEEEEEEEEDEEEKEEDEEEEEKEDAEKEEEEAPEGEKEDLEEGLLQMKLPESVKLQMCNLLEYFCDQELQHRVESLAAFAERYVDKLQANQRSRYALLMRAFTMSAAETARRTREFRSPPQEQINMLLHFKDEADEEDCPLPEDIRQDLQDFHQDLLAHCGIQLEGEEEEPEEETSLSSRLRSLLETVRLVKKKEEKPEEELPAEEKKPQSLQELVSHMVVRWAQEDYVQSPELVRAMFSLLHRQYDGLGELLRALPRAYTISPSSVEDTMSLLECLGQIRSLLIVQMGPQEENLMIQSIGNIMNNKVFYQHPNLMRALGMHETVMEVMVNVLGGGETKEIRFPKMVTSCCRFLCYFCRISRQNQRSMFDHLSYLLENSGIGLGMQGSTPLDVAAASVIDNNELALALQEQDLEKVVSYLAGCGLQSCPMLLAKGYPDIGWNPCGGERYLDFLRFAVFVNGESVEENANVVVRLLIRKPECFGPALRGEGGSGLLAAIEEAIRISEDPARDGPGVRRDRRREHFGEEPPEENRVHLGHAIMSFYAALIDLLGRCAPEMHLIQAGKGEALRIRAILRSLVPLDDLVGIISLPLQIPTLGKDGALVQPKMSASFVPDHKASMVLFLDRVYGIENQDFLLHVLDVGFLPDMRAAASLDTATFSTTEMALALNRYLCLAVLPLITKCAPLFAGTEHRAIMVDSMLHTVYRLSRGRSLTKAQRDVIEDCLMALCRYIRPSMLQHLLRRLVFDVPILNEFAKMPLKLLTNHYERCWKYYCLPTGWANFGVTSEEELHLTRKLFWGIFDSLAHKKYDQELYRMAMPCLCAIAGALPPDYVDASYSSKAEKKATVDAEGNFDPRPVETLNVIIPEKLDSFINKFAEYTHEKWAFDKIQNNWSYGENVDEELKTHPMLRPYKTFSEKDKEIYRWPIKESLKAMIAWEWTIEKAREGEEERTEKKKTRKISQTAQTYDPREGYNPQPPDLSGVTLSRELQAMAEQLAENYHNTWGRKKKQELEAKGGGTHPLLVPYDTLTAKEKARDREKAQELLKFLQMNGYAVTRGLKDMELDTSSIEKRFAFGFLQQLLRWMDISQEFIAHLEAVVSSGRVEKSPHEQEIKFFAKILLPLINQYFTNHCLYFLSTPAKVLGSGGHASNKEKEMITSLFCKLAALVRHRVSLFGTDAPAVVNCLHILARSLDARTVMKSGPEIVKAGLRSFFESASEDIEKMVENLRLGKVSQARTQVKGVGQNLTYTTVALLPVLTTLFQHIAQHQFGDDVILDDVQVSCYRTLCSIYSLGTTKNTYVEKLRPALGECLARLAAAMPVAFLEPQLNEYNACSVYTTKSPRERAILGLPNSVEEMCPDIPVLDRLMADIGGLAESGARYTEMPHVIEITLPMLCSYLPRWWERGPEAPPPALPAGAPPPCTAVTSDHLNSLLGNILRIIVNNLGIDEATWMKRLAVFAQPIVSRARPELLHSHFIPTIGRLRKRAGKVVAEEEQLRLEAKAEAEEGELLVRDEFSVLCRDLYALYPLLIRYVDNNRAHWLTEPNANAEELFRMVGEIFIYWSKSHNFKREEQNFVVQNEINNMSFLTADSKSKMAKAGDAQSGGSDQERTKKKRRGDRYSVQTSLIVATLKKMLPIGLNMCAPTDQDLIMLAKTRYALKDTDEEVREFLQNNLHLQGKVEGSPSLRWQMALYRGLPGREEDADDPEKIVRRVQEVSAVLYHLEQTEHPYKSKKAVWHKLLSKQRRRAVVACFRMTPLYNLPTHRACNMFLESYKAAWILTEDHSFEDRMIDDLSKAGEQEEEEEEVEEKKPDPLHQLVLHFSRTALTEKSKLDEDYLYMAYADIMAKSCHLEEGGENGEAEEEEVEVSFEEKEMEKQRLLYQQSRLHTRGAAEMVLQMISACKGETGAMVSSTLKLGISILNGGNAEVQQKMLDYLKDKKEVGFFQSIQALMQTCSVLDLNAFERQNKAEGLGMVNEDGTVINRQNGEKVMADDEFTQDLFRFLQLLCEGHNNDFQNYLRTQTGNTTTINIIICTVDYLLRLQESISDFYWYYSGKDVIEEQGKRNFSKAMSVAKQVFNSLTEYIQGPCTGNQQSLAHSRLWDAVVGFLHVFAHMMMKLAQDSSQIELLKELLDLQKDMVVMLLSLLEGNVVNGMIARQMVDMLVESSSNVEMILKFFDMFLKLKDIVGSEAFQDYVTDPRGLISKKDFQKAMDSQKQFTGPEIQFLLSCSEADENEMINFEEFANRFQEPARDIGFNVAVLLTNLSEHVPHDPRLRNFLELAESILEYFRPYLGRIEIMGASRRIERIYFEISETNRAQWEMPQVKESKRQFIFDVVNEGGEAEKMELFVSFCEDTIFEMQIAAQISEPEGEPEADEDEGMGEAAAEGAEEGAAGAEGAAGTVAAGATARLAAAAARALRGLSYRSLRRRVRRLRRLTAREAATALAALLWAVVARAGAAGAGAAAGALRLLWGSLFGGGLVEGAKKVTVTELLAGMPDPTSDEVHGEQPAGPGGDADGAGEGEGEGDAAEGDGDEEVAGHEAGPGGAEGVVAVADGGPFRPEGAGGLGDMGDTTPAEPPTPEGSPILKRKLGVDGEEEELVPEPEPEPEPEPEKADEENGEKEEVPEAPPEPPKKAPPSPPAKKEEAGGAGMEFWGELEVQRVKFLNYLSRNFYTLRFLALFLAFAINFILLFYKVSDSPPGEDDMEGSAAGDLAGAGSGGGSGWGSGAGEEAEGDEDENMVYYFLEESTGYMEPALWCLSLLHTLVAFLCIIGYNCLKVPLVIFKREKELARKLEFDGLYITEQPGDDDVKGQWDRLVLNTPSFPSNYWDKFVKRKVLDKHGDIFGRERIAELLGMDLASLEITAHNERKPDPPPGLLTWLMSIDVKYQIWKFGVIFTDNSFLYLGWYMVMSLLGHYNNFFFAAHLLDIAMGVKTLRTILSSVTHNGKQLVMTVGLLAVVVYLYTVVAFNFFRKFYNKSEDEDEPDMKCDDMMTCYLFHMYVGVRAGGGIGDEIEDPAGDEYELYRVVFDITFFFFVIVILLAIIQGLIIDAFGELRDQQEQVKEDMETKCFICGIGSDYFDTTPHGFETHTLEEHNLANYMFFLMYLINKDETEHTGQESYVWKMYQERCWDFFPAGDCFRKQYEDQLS

Oc1cccc(Br)c1 [3-BP, 3-bromophenol]
intracellular calcium assay in HEK 293 stable cell lines; selective over M4000F, [1]: 3-bromophenol (3-BP) has higher selectivity for RyR1(WT) than RyR1(M4000F), RyR2, or RyR3

Oc1ccc(Br)cc1 [4-BP, 4-bromophenol]
EC50 [2]: 4.7 µM

Cc1cc(O)ccc1Cl [4-CmC, 4-chloro-m-cresol]
intracellular calcium assay in HEK 293T cells with RyR1 WT and point mutants [3]: substitution of phenylalanine with alanine (F4062A) substantially reduced the sensitivities to both 4-CmC and isoflurane

CCc1ccc(O)cc1 [4-EP, 4-ethylphenol]
EC50 [4]: 24 µM

Cc1ccc(O)cc1 [4-MP, 4-methylphenol]
intracellular calcium assay in HEK 293 cells; selectivity over M4000F [5]: 4-methylphenol (4-MP) and 4-ethylphenol (4-EP), phenolic chemicals with a methyl or ethyl residue | EC50 [4]: 31 µM

Cn1c(=O)c2c(ncn2C)n(C)c1=O [caffeine]
intracellular calcium assay in HEK 293 cells; caffeine-site point mutants [6]: RyR1(W4716I), RyR1(W4716L), and RyR1(F3753A) were insensitive to caffeine but were activated by isoflurane

FC(F)(F)C(Cl)Br (centres unmarked) [halothane]
EC50 [7]: 288 µM

FC(F)OC(Cl)C(F)(F)F (centres unmarked) [isoflurane]
intracellular calcium assay in HEK 293 cells; response lost in M4003F [8]: mouse RyR1(WT) was sensitive to isoflurane, as expected, whereas mouse RyR1(M4003F) was not activated by isoflurane | EC50 [9]: 203 µM

FCOC(C(F)(F)F)C(F)(F)F [sevoflurane]
intracellular calcium assay in HEK 293 stable cell line; response lost in M4000F [10]: sevoflurane, an inhaled anesthetic with clinical use, activated RyR1 but not RyR2 and RyR3

Reference: article PMC12132946, “Isoflurane activates the type 1 ryanodine receptor to induce anesthesia in mice” (PLOS Biology, 2025)
